The conditions of data set [1]: aqueous solution; Higuchi et al. 1955; cited from earlier work.
Data set [2] can be described thus: Stability of a solution in pH 8 aqueous buffer on standing for 12 weeks at 50° C. The class given is physicochemical.
The next data set in a line: Aqueous solubility. It is filed as physicochemical. As to conditions: water, 4° C.

Some results are limits rather than exact numbers.

`CCOC(=O)c1ccc(N)cc1` [benzocaine]: in data set [1], the “effect of caffeine on hydrolytic degradation” value is listed as “substantially reduces the hydrolytic degradation”.

A word on the solubility: it is the concentration that dissolves in the medium under given conditions. Low values mean a poorly soluble substance, high ones a readily soluble substance. On to `CN1CCC[C@@H]1Cc1c[nH]c2ccc(CCS(=O)(=O)c3ccccc3)cc12` [Eletriptan hemisulphate], for which the “number of degradation products detected by H.P.L.C.” value in data set [2] (H.P.L.C. techniques) was “At least five”. In data set [2] (aqueous solutions), the hydrolytic stability entry is recorded as “hydrolytically unstable”. In data set [2] (pH 8 aqueous buffer, 12 weeks at 50° C., read-out: eletriptan left (relative to the original weight)), the remaining at 2016 h is below 85%. Further, the solubility in “Aqueous solubility” is above 100 mg/mL.

These data come from patent US6166025A, “Pharmaceutical compositions containing eletriptran hemisulphate and caffeine” (Pfizer Inc., priority 1997, dated 2000).
